Like-named read-outs stand apart in the source and are kept apart here.
How the values were obtained:
[1] = rat, in vivo; cited from earlier work
human DOR = molecular target: T1, human DOR (Homo sapiens, UniProt P41143); assay type: binding
T1 construct: host or cells: CHO (CHO-hDOR), cell membranes

human KOR = molecular target: T2, human KOR (Homo sapiens, UniProt P41145); assay type: binding
T2 construct: host or cells: CHO (CHO-hKOR), cell membranes

dopamine D1 receptor = test system: dopamine D1 receptor; parameters: method as in PMID 18830156, PMID 30308941; conditions: cell-based functional assays; cited from earlier work
[2] = test system: acetic acid-induced writhing; experiment: acetic acid-induced writhing test; assay type: in vivo, mice; conditions: for reduction in the number of writhes / times less effective than morphine (0.5 mg/kg) at equianalgesic doses: mice; for reduction in the number of writhes: 30 min after administration; for antiwrithing response after naltrexone pretreatment: naltrexone 1 mg/kg s.c. 10 min before agonist; for times less effective than morphine (0.5 mg/kg) at equianalgesic doses: writhing assay, s.c.
Protocol: Male CD1 mice (30–35 g, 7–8 weeks old) were obtained from the Center of Biomodels and Experimental Medicine (CBEM) (Innsbruck, Austria). Mice were group-housed in a temperature-controlled room with a 12 h light/dark cycle and with free access to food and water. All animal studies were conducted in accordance with ethical guidelines and animal welfare standards according to Austrian regulations for animal research and were approved by the Committee of Animal Care of the Austrian Federal Ministry of Science and Research. Test compounds or vehicle were administered by s.c. route in a volume of 10 µL/1 g of body weight.
Writhing was induced in mice by intraperitoneal (i.p.) injection of a 0.6% acetic acid aqueous solution[26]. Drugs or control (vehicle) were s.c. administered, and after 25 min (5 min prior to testing), each animal received i.p. acetic acid solution. Each mouse was placed in individual transparent Plexiglas chambers, and the number of writhes was counted during a 10 min observation period. […] For the antagonism study, naltrexone (1 mg/kg) was s.c. administered 10 min before the opioid agonist, and writhing as assessed as described above. Each experimental group included five to six animals.

human MOR [3] = molecular target: T3, human MOR (Homo sapiens, UniProt P35372); assay type: cell-based; parameters: host or cells: U2OS (PathHunter U2OS-hMOR-βarrestin2); conditions: PathHunter, U2OS-hMOR
human MOR [4] = molecular target: T3, human MOR; experiment: biochemical; assay type: binding; parameters: host or cells: CHO (CHO-hMOR), cell membranes
human MOR [5] = molecular target: T3, human MOR; experiment: biochemical; assay type: biochemical; parameters: host or cells: CHO (CHO-hMOR), cell membranes; conditions: for agonist character at the MOR: CHO-hMOR; for G protein activation %stim: percentage stimulation relative to DAMGO

T3 sequence (P35372 whole entry): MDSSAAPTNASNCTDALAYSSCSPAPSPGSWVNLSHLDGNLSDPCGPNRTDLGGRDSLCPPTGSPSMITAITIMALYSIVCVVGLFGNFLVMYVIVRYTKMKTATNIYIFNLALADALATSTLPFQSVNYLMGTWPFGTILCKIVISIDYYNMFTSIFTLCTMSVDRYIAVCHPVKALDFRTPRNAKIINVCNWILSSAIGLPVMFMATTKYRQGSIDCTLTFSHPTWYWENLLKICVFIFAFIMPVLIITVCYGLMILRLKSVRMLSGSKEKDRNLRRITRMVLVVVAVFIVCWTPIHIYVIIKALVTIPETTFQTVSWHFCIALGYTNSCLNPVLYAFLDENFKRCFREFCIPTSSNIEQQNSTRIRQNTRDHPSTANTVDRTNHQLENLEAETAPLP
T1 sequence (P41143 whole entry): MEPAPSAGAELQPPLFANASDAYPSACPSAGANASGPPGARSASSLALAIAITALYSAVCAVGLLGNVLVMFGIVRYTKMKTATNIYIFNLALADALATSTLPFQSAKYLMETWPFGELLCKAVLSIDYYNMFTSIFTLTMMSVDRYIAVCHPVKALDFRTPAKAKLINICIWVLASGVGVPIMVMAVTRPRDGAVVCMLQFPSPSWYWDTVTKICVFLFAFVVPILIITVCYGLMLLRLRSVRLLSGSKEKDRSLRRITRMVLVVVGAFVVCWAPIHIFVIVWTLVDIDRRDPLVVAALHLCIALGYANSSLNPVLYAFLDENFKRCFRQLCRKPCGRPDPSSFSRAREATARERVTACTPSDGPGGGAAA
T2 sequence (P41145 whole entry): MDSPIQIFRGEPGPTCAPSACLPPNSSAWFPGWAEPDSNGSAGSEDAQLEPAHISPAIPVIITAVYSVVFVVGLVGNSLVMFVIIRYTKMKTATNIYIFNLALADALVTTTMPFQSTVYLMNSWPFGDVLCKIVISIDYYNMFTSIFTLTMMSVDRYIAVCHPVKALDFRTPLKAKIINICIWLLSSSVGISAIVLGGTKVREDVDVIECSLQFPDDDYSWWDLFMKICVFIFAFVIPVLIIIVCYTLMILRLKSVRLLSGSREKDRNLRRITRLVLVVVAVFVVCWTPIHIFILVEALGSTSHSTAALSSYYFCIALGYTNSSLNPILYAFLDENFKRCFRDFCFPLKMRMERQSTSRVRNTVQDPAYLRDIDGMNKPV

COc1cc2c(cc1OC)C1C(C)c3ccc(OC)c(OC)c3CN1CC2 (centres unmarked) [Corydaline (2), corydaline]
blood–brain barrier crossing [1]: can effectively cross the blood–brain barrier
specific binding to the human DOR (human DOR): did not specifically bind
alterations in general behavior (locomotor activity, sedation) (mouse, in vivo): no major alterations in locomotor activity and no sedation
specific binding to the human KOR (human KOR): did not specifically bind
activity at the dopamine D1 receptor (dopamine D1 receptor): antagonist activity
reduction in the number of writhes ([2]; 10 mg/kg s.c.): 59%
antiwrithing response after naltrexone pretreatment [2]: antagonized
times less effective than morphine (0.5 mg/kg) at equianalgesic doses [2]: ~20 times
β-arrestin2 recruitment upon activation of the MOR (human MOR [3]): failed to induce β-arrestin2 recruitment
Ki (human MOR [4]): 1230 ± 290 nM
EC50 (human MOR [5]): 1500 ± 440 nM
agonist character at the MOR (human MOR [5]; [35S]GTPγS binding): full agonists
G protein activation %stim (human MOR [5]; [35S]GTPγS binding): 104 ± 6%

COc1cc2c3c(c1O)-c1c(ccc(OC)c1OC)C[C@@H]3N(C)CC2 [Corydine (1), corydine]
specific binding to the human DOR (human DOR): did not specifically bind
alterations in general behavior (locomotor activity, sedation) (mice, s.c., tested doses (5 mg/kg corydine, 10 mg/kg corydaline)): no major alterations in locomotor activity and no sedation
specific binding to the human KOR (human KOR): did not specifically bind
reduction in the number of writhes ([2]; 5 mg/kg s.c.): 51%
antiwrithing response after naltrexone pretreatment [2]: antagonized
times less effective than morphine (0.5 mg/kg) at equianalgesic doses [2]: ca. 10 times
β-arrestin2 recruitment upon activation of the MOR (human MOR [3]): failed to induce β-arrestin2 recruitment
Ki (human MOR [4]): 2820 ± 610 nM
EC50 (human MOR [5]): 510 ± 110 nM
agonist potency, times greater than corydaline (2) (human MOR [5]; [35S]GTPγS binding): about 3 times
agonist potency, times less potent than DAMGO (human MOR [5]; [35S]GTPγS binding): 34 times
agonist character at the MOR (human MOR [5]; [35S]GTPγS binding): full agonists
G protein activation %stim (human MOR [5]; [35S]GTPγS binding): 102 ± 6%

C[C@@H](NC(=O)[C@@H](N)Cc1ccc(O)cc1)C(=O)NCC(=O)N(C)[C@@H](Cc1ccccc1)C(=O)NCCO [DAMGO, reference compound]
β-arrestin2 recruitment upon activation of the MOR (human MOR [3]): effectively recruited β-arrestin2
β-arrestin2 recruitment %stim (human MOR [3]; relative to DAMGO, – denotes no measurable activity): 100%
G protein activation %stim (human MOR [5]; [35S]GTPγS binding): 100%

Reference: publication PMC7427800 (Scientific Reports, 2020)
